The values below come from PubChem BioAssay AID463203 (Broad Institute, 2010).

Activity calls are given as the source filed them.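 How the source made its calls: active means more than half of replicate measurements showing over 20% loss of kinase signal relative to plate controls; inconclusive means some but at most half of replicates over 20% loss; inactive means no replicate over 20% signal loss.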 Where only a bound is given, the exact number is not on record here.

For the experiment, the target named is Glycogen synthase kinase-3 alpha (Homo sapiens) (UniProt P49840). The experiment is described as follows: concentration-response blocking of human GSK3A – biochemical, luminescence, cell-free homogeneous, retest, dose response (AID 463203). As to conditions: GSK-3 alpha enzyme, ADP-Glo luminescence, 60 min. On the technique in general: In ADP-Glo the light output rises with the ADP produced.
Glycogen synthase kinase-3 alpha (Homo sapiens), sequence (P49840 whole entry, looked up): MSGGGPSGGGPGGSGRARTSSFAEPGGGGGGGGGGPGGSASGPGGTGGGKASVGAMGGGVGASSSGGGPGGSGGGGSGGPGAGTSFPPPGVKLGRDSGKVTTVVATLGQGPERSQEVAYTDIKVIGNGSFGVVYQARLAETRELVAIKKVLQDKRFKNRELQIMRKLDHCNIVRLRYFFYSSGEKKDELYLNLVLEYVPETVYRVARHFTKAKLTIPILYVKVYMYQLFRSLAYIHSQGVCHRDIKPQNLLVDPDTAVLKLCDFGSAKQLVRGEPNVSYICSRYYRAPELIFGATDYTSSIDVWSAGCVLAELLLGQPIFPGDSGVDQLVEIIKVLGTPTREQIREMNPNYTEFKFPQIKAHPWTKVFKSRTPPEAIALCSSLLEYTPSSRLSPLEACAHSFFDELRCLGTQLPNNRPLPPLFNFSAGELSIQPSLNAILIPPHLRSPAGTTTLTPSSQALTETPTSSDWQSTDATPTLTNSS

Turning to `CNc1cc(N2CCCC2)ccc1[N+](=O)[O-]`, the AC50 (in general, the concentration at which the activity in the assay is half-maximal) is > 30 µM (inactive).

As to `Cc1ccc(-n2cnc(N)c2C(=O)c2cccc([N+](=O)[O-])c2)cc1`, the half-maximal activity concentration (AC50) was 10.8 µM.

As for `Cc1[nH]nc(NCCO)c1[N+](=O)[O-]`, the AC50 is > 30 µM (inactive).

For `Nc1ncnc2nc(SCc3ccc(Cl)cc3Cl)[nH]c12`, the AC50 is > 30 µM (inactive).

For `CCCCOC(=O)Nc1nnc(COc2ccccc2)s1`, the AC50 was > 30 µM (inactive).

For `CCOC(=O)c1ccc(NC(=O)CSCc2ccco2)cc1`, the AC50 is > 30 µM (inactive).

Regarding `Cc1cc(C)c2[nH]c(O)c(N=Nc3ccc(C(=O)O)cc3)c2c1`, the AC50 was > 30 µM (inactive).

`COc1cc(CN2CCCN(C)CC2)c([N+](=O)[O-])cc1OC`: the AC50 was > 30 µM (inactive).

As to `Oc1[nH]c2ccc(Br)cc2c1N=Nc1ccc(F)cc1`, the concentration at half-maximal activity (AC50) was 7.48 µM.

With `O=C(O)CCNc1ccc(NCCC(=O)O)c2c1C(=O)c1ccccc1C2=O`, the AC50 is 22.7 µM.

Turning to `Cc1ccc(Cn2cc(/C=N/Nc3ccc([N+](=O)[O-])cn3)c3ccccc32)cc1`, the AC50 is > 30 µM (inactive).

With `CN1/C(=C\C=C(C#N)C#N)C(C)(C)c2ccccc21`, the AC50 is > 30 µM (inactive).

As for `CCc1cc2c3c(c(=O)oc2cc1O)CCCC3`, the AC50 was > 30 µM (inactive).

In the case of `CCOc1ccc(C2C3=C(CCCC3=O)Nc3ccc4ncccc4c32)cc1` (stereo not given), the AC50 is > 30 µM (inactive).

In the case of `Cc1ccc(C)c(Sc2ccc(NC(=O)CCl)cc2)c1`, the AC50 was > 30 µM (inactive).

Take `O=C(COC(=O)c1cc(S(=O)(=O)N2CCOCC2)ccc1F)Nc1ccc(Cl)cn1`: the AC50 is 2.72 µM.

Consider `O=C(Nc1ccccc1C(=O)NC1CCCCC1)c1ccccc1`, for which the AC50 was > 30 µM (inactive).

On to `O=C(O)C1CC(O)CN1C(=S)Nc1ccccc1` (stereo not given), for which the AC50 is > 30 µM (inactive).

With `Cc1ccc(S(=O)(=O)N(CC(O)CN2CCCCC2)c2ccccc2)cc1` (stereo not given), the AC50 was > 30 µM (inactive).

For the compound `O=C(CSc1ncccc1-c1nc2ccccc2[nH]1)NCc1ccco1`, the AC50 is > 30 µM (inactive).

`NS(=O)(=O)c1ccc(NC(=O)CSc2nnc(-c3ccc(O)cc3)o2)cc1`: the half-maximal activity concentration (AC50) was 4.93 µM.

Consider `CCOC(=O)c1c(NC(=O)CN2C(=O)NC3(CCC(C)CC3)C2=O)sc(C)c1CC` (stereo not given), for which the AC50 was > 30 µM (inactive).

`CC(=O)C(Sc1ccc2nnc(-c3ccc(C)cc3)n2n1)C(C)=O`: the AC50 is > 30 µM (inactive).

As for `CCC(=O)/C=C1\Sc2ccc(OC)cc2N1CCO`, the AC50 is > 30 µM (inactive).

Turning to `CCN(CC)CCOc1ccc2c(c1)C(=NNC(=O)c1ccccn1)c1cc(OCCN(CC)CC)ccc1-2`, the AC50 was > 30 µM (inactive).

As to `Cc1ccc(S(=O)(=O)c2c(C(=O)c3ccccc3)cnc3cc4c(cc23)OCCO4)cc1`, the AC50 was > 30 µM (inactive).

Take `CCc1cc(C(=O)c2ccc(C)cc2)c(NC(=O)CCl)s1`: the AC50 was > 30 µM (inactive).

Consider `COc1ccc(Cn2nnc(C(=O)Nc3ccc(F)cc3)c2N)cc1`, for which the AC50 is > 30 µM (inactive).

Turning to `Cc1ccc(/C=N/NC(=O)c2nnn(-c3nonc3N)c2CN(C)C2CCCCC2)cc1`, the AC50 was > 30 µM (inactive).

For the compound `Cc1ccccc1N=Nc1c(O)[nH]c2ccccc12`, the AC50 is > 30 µM (inactive).

Regarding `CCOC(=O)c1nc(NCc2ccccc2C)c2ccccc2n1`, the AC50 is > 30 µM (inactive).

On to `COC(=O)[C@@H](NC(=O)NCc1ccccc1F)C(C)C`, for which the AC50 was > 30 µM (inactive).

With `CN(C)C(=O)Oc1cccc2c(OC(=O)N(C)C)cccc12`, the AC50 was > 30 µM (inactive).

Turning to `C=CCNc1nc(N)c(C(=O)c2ccc3c(c2)OCO3)s1`, the AC50 was 0.211 µM.

`CCOC(=O)N1CCC(N2CCN(S(=O)(=O)c3ccc(NC(C)=O)cc3)CC2)CC1`: the AC50 was > 30 µM (inactive).

In the case of `Cc1nc(NC(=O)c2ccccc2)sc1Cc1ccc2c(c1)OCO2`, the AC50 is > 30 µM (inactive).

For `CN1/C(=C\C=C2/SC(=S)NC2=O)C(C)(C)c2ccccc21`, the concentration at half-maximal activity (AC50) is 12.7 µM.

`COc1ccccc1NC(=O)c1cc2ccc(O)cc2o/c1=N\O`: the AC50 is > 30 µM (inactive).

With `CN(C)/C=C/c1c([N+](=O)[O-])c2ccc(O)cc2n1-c1ccccc1`, the concentration at half-maximal activity (AC50) is 2.08 µM.

As to `CCc1ccc(/C=N/NC(=O)c2nnn(-c3nonc3N)c2C(C)C)cc1`, the AC50 was > 30 µM (inactive).

`COC(=O)c1c(NC(=O)CN2C(=O)NC3(CCC(C(C)(C)C)CC3)C2=O)sc2c1CCCCC2` (stereo not given): the AC50 was > 30 µM (inactive).

For `CC(Oc1ccc(Br)cc1)C(=O)N1CCC(C(N)=O)CC1` (stereo not given), the AC50 is > 30 µM (inactive).

`Cc1ccc2nc(C3CCCCC3)[nH]c2c1`: the AC50 was > 30 µM (inactive).

For `COc1ccc2c(c1)C(SCC(=O)NCc1ccccc1)CC(C)(C)O2` (stereo not given), the AC50 is > 30 µM (inactive).

For the compound `COc1ccc(S(=O)(=O)Nc2c(C(=O)O)[nH]c3ccc(OC)cc23)cc1`, the AC50 is 30.7 µM.

For the compound `O=C(c1ccco1)N(Cc1ccc([N+](=O)[O-])cc1)c1ccc(Br)cc1`, the AC50 is > 30 µM (inactive).

Regarding `Brc1ccccc1/C=N/Nc1ccc2ccccc2n1`, the AC50 was > 30 µM (inactive).

On to `Cc1cc(/C=N/O)c(C)n1-c1ccc(Br)cc1`, for which the AC50 is > 30 µM (inactive).

In the case of `COc1ccc(C2NC(=O)NC(C)=C2C(=O)OCc2ccc3c(c2)OCO3)cc1OC` (stereo not given), the concentration at half-maximal activity (AC50) is 10.2 µM.

`CCOC(=O)N1CCc2c(sc3nc4n(c(=O)c23)N=C(c2ccc(OC)cc2)CS4)C1`: the AC50 was > 30 µM (inactive).

For the compound `COc1cccc(-c2cc(C(=O)N3CCN(c4ccccc4OC)CC3)no2)c1`, the AC50 was > 30 µM (inactive).

For the compound `O=C(O)c1ccc2c(c1)S(=O)(=O)c1cc(Cl)ccc1C2=O`, the AC50 is 6.54 µM.

For the compound `COc1ccc(NC(=O)Nc2ccccc2F)c(C)c1`, the AC50 was > 30 µM (inactive).

For the compound `NC(=O)c1nnn(-c2ccccc2)c1N`, the AC50 was > 30 µM (inactive).

`COc1ccccc1Nc1nc(C)cc(C)n1`: the AC50 was > 30 µM (inactive).

Regarding `COc1ccc2nc(NC(=O)CCc3cc(OC)c(OC)c(OC)c3)sc2c1`, the half-maximal activity concentration (AC50) is 7.29 µM.

Regarding `Nc1n[nH]c2cc(=O)n(-c3ccc(Cl)cc3)nc12`, the AC50 is 18.9 µM.

In the case of `COc1ccc([C@H]2[C@H](C(=O)C(C)(C)C)N3N=Cc4ccccc4C3[C@]23N=C(c2ccccc2)OC3=O)cc1OC` (stereo not given in full), the AC50 was > 30 µM (inactive).

Take `CCc1ccc(N2CSC3=C(C#N)C(c4cccs4)CC(=O)N3C2)cc1` (stereo not given): the concentration at half-maximal activity (AC50) was 28.8 µM.

On to `CC1(C)CC(=O)C(CS(=O)(=O)c2ccccc2)=C(O)C1`, for which the AC50 was > 30 µM (inactive).

As to `Nc1nonc1-c1nc2ccccc2n1CCC(=O)O`, the AC50 is 16.4 µM.

In the case of `CCn1c(SCC(=O)N/N=C/c2cccs2)nc2ccccc21`, the AC50 is > 30 µM (inactive).

As for `COc1ccc(/C=C(/NC(=O)c2ccc([N+](=O)[O-])cc2)C(=O)NC(C)(C)C)cc1`, the AC50 is > 30 µM (inactive).

As to `CC(OC(=O)c1cccc(N2C(=O)c3ccccc3C2=O)c1)C(=O)Nc1ccc(N(C)C)cc1` (stereo not given), the AC50 is > 30 µM (inactive).

With `O=C(O)c1cc(NC(=O)c2ccccc2[N+](=O)[O-])ccc1O`, the AC50 was > 30 µM (inactive).

For `COC(=O)c1sc(NC(=O)COc2ccc(OC)cc2)nc1C`, the half-maximal activity concentration (AC50) was 28.6 µM.

As for `Cc1cc(NC(=O)c2sc(Nc3ccc(F)cc3)nc2N)no1`, the AC50 is 8.04 µM.

Take `CCNC(=S)NNC(=O)Cc1ccccc1`: the AC50 is > 30 µM (inactive).

In the case of `Fc1ccc(Nc2ccnc(Nc3ccc(F)cc3)n2)cc1`, the AC50 was > 30 µM (inactive).

For the compound `O=C1NC(=Nc2ccccc2Cl)S/C1=C\c1cc([N+](=O)[O-])ccc1O`, the half-maximal activity concentration (AC50) is 3.23 µM.

Take `COc1ccc2nc(NC(=O)CSc3nnc(-c4ccoc4C)n3C)sc2c1`: the AC50 was 4.62 µM.

For `Cc1ccnc(NC(=O)CCC(=O)N(CC(=O)NCc2ccccc2)Cc2ccc(F)cc2)c1`, the AC50 was 25 µM.

Turning to `O=C(CSc1ccc2nnc(-c3ccccn3)n2n1)N1CCN(c2ccccc2)CC1`, the AC50 is > 30 µM (inactive).

Regarding `CCN(CC)CCCNc1nc(N)c([N+](=O)[O-])c(N2CCCCCC2)n1`, the AC50 was 29.6 µM.

Regarding `C#CCOCCOCCOCCNc1nc(N2CCN(C(=O)CCCCCCCCCCNC(=O)[C@H](CCCCN)n3cc(C)nn3)CC2)nc(N2CCN(C(=O)CCCCCCCCCCNC(=O)[C@@H]([C@H](C)CC)n3cc(CCCCCN)nn3)CC2)n1`, the AC50 is > 30 µM (inactive).

Take `CCOC(=O)C1=C(c2ccccc2)Nc2ncnn2C1c1cccc(OC)c1OC` (stereo not given): the AC50 was 9 µM.

In the case of `CN1CCc2nc3sc(C(=O)NC4CC4)c(N)c3cc2C1`, the AC50 is > 30 µM (inactive).

As for `CN(C)CCCNc1ccc(S(N)(=O)=O)cc1[N+](=O)[O-]`, the AC50 was > 30 µM (inactive).

Regarding `COCc1nnc(NC(=O)CCCCCN2C(=O)c3ccccc3C2=O)s1`, the AC50 was > 30 µM (inactive).

Turning to `CCOC(=O)c1ccc(N2C=C(C(=O)OC)C(c3ccc(OC)c(O)c3)C(C(=O)OC)=C2)cc1`, the AC50 is > 30 µM (inactive).

For `Nc1nc(N)nc(-c2cc([N+](=O)[O-])ccc2O)n1`, the half-maximal activity concentration (AC50) was 2.41 µM.

As for `COc1ccc(CCNC(=O)CSc2nc3[nH]ncc3c(=O)n2-c2ccccc2OC)cc1OC`, the AC50 was 1.89 µM.

Turning to `Nc1nonc1-n1nnc(C(=O)N/N=C/c2ccc(Cl)cc2Cl)c1CN1CCOCC1`, the AC50 was > 30 µM (inactive).

Regarding `O=C(NC1=NCCS1)c1ccc(Cl)cc1`, the AC50 is > 30 µM (inactive).

Consider `COc1ccc(COC(=O)C2=C(C)NC(=O)NC2c2cccc(Br)c2)cc1` (stereo not given), for which the AC50 is 16.9 µM.

Consider `O=[N+]([O-])c1ccc(NCCCN2CCOCC2)c2ncccc12`, for which the AC50 is > 30 µM (inactive).

As for `NS(=O)(=O)c1ccc(Nc2nc(-c3ccc(F)cc3)cs2)cc1`, the AC50 was 26.2 µM.

Regarding `CCc1ccc(N2CC(C(=O)Nc3nccs3)CC2=O)cc1` (stereo not given), the AC50 was > 30 µM (inactive).

As for `C/C(CC(=O)N(C(C)C)C(C)C)=N\NC(=O)COc1ccc(Br)cc1Br`, the AC50 was > 30 µM (inactive).

`COc1ccc(CCNC2=C(Cl)C(=O)N(Cc3ccccc3)C2=O)cc1OC`: the AC50 was > 30 µM (inactive).
